Here are results for 15 molecules from ChEMBL document CHEMBL5338719, “Recent advance on pleiotropic cholinesterase inhibitors bearing amyloid modulation efficacy” (Eur J Med Chem, 2022).

The target of experiment [1] is T1, Acetylcholinesterase (Electrophorus electricus, UniProt O42275). Briefly: Inhibition of electric eel AChE by Ellman's method.
Experiment [2] deals with T2, Cholinesterase (Homo sapiens, UniProt P06276). Briefly: Inhibition of human BChE by Ellmans method.
The target of experiment [3] is T3, Amyloid-beta precursor protein (Homo sapiens, UniProt P05067). Briefly: Inhibition of amyloid beta 42 (unknown origin) self aggregation at 25 uM by ThT fluorometric assay relative to control.
In experiment [4] the target is T3, Amyloid-beta precursor protein. The experiment can be described thus: Inhibition of amyloid beta 42 (unknown origin) self aggregation at 80 uM incubated for 24 hrs by fluoroscence emission relative to control.
The target in experiment [5] is Acetylcholinesterase (Torpedo californica, UniProt P04058). Briefly: Inhibition of pacific electric ray AChE incubated for 15 mins. Set-up: species or system Tetronarce californica.
Experiment [6] has as its target T3, Amyloid-beta precursor protein. The experiment can be described thus: Inhibition of amyloid beta 1 to 42 (unknown origin) aggregation at 10 uM for 24 hrs by ThT fluorometric assay relative to control.
In experiment [7] the target is T4, Acetylcholinesterase (Homo sapiens, UniProt P22303). Briefly: Inhibition of human recombinant AChE preincubated for 5 mins followed by substrate addition measured every 2 mins by Ellmans method.
Experiment [8] addresses T3, Amyloid-beta precursor protein. Briefly: Inhibition of amyloid beta 42 (unknown origin) self aggregation incubated for 48 hrs by fluoroMax-4 spectrofluorometeric analysis.
Experiment [9] concerns the target T2, Cholinesterase. The experiment can be described thus: Inhibition of human recombinant BChE by Ellmans method preincubated for 5 mins followed by substrate addition measured every 2 mins.
Experiment [10] deals with T3, Amyloid-beta precursor protein. The experiment can be described thus: Inhibition of amyloid beta 42 (unknown origin) self aggregation at 10 uM relative to control.
The target in experiment [11] is T5, Beta-secretase 1 (Homo sapiens, UniProt P56817). Briefly: Inhibition of BACE1 (unknown origin) at 50 uM by FRET-based enzyme assay relative to control.
Experiment [12] addresses T6, Cholinesterase (Equus caballus, UniProt P81908). The experiment can be described thus: Inhibition of equine BChE using butyrylthiocholine iodide incubated for 3 mins by Ellman's method.
For experiment [13], the target named is T3, Amyloid-beta precursor protein. Briefly: Inhibition of amyloid beta 1 to 42 (unknown origin) aggregation at 50 uM by ThT binding assay relative to control.
Experiment [14] addresses T1, Acetylcholinesterase. The experiment can be described thus: Inhibition of electric eel AChE using acetylthiocholine iodine as substrate by Ellman's method.
Experiment [15] concerns the target T5, Beta-secretase 1. Briefly: Inhibition of BACE1 (unknown origin) at 50 uM by FRET assay relative to control.
Experiment [16] has as its target T5, Beta-secretase 1. Briefly: Inhibition of BACE1 (unknown origin) by FRET-based fluorescent analysis.
Experiment [17] concerns the target T4, Acetylcholinesterase. Briefly: Inhibition of human AChE by Ellmans method.
Experiment [18] has as its target T3, Amyloid-beta precursor protein. Briefly: Inhibition of amyloid beta (25 to 35) (unknown origin) aggregation at 10 uM relative to control.
The target of experiment [19] is T5, Beta-secretase 1. Briefly: Inhibition of BACE1 (unknown origin).
The target of experiment [20] is T1, Acetylcholinesterase. The experiment can be described thus: Inhibition of electric eel AChE.
The target in experiment [21] is T6, Cholinesterase. The experiment can be described thus: Inhibition of equine BChE.
For experiment [22], the target named is T2, Cholinesterase. Briefly: Inhibition of human BChE.
Experiment [23] has as its target T3, Amyloid-beta precursor protein. The experiment can be described thus: Inhibition of amyloid beta 42 (unknown origin) fibrillization at 44 uM relative to control.
Experiment [24] addresses T4, Acetylcholinesterase. The experiment can be described thus: Inhibition of human AChE.
Experiment [25] concerns the target T3, Amyloid-beta precursor protein. Briefly: Inhibition of amyloid beta 1 to 42 (unknown origin) self induced aggregation at 100 uM by thioflavin T-based fluorometric assay relative to control.
The target of experiment [26] is T6, Cholinesterase. Briefly: Inhibition of equine BChE using BTChI as substrate.
Experiment [27] addresses T1, Acetylcholinesterase. The experiment can be described thus: Inhibition of electric eel AChE using ATChI as substrate.
The target of experiment [28] is T3, Amyloid-beta precursor protein. The experiment can be described thus: Inhibition of amyloid beta 42 (unknown origin) fibrillization at 44 uM for 48 hrs by ThT fluorescence assay relative to control.
Experiment [29] addresses T5, Beta-secretase 1. Briefly: Inhibition of BACE1 (unknown origin) at 20 uM by fluorescence assay relative to control.
Experiment [30] addresses T3, Amyloid-beta precursor protein. The experiment can be described thus: Inhibition of amyloid beta 42 (unknown origin) aggregation at 25 uM relative to control.
In experiment [31] the target is T1, Acetylcholinesterase. Briefly: Inhibition of electric eel AchE using acetylthiocholine as substrate by Ellman's method.
Experiment [32] addresses T3, Amyloid-beta precursor protein. The experiment can be described thus: Inhibition of amyloid beta 42 (unknown origin) aggregation at 25 uM by Thioflavin T-based fluorescence assay relative to control.
Experiment [33] concerns the target T6, Cholinesterase. Briefly: Inhibition of equine BChE using butyrylthiocholine as substrate by Ellman's method.

T3 sequence (P05067 whole entry): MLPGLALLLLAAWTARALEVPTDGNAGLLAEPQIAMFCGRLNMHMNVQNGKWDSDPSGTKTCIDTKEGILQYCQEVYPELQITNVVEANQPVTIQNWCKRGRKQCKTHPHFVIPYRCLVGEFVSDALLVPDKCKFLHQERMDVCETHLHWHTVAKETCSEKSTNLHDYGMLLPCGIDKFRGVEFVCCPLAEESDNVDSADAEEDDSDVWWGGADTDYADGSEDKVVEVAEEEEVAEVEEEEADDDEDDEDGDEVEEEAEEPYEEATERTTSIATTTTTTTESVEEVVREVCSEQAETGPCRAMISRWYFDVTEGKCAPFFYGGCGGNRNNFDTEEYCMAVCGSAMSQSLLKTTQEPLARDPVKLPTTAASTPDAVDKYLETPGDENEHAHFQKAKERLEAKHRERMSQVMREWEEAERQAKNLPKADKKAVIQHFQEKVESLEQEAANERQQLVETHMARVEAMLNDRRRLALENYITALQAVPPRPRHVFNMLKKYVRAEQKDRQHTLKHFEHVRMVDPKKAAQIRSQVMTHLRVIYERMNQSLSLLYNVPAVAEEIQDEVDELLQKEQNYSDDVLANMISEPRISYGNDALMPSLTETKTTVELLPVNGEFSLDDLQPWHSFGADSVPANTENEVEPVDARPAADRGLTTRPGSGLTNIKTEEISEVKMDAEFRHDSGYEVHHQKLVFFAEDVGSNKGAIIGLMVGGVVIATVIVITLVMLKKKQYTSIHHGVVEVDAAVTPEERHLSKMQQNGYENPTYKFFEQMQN
T6 sequence (P81908 whole entry): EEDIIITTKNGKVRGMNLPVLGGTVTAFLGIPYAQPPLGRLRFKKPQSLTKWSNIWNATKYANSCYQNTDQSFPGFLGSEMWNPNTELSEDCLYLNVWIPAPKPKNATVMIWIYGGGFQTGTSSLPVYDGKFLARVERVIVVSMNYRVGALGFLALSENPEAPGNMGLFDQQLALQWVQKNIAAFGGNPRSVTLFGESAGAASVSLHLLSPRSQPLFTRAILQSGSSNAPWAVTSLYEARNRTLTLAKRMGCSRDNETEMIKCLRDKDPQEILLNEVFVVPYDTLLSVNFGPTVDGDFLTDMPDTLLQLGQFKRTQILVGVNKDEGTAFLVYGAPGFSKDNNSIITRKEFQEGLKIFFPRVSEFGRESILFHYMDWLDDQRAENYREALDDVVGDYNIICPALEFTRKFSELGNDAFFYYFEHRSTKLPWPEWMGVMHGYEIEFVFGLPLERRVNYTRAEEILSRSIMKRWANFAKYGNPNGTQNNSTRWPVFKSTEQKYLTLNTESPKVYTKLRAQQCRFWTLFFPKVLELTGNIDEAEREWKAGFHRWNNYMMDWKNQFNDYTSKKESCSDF
T4 sequence (P22303 whole entry): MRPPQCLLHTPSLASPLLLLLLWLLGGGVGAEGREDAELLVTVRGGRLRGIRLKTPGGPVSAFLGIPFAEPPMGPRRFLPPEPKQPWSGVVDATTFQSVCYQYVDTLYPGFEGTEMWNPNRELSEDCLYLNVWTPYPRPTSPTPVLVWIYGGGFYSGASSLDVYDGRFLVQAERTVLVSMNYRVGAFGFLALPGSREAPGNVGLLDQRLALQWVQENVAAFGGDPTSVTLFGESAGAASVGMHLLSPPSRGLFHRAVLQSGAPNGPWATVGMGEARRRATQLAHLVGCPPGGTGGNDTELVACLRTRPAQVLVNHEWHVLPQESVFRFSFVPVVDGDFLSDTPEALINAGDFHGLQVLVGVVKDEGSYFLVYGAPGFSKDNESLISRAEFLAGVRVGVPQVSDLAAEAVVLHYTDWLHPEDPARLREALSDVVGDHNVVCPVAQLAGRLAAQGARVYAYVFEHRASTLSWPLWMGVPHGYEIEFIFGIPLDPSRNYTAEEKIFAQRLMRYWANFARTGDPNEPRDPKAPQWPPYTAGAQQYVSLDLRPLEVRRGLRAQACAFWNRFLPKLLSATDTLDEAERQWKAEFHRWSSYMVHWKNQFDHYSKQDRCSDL
T5 sequence (P56817 whole entry): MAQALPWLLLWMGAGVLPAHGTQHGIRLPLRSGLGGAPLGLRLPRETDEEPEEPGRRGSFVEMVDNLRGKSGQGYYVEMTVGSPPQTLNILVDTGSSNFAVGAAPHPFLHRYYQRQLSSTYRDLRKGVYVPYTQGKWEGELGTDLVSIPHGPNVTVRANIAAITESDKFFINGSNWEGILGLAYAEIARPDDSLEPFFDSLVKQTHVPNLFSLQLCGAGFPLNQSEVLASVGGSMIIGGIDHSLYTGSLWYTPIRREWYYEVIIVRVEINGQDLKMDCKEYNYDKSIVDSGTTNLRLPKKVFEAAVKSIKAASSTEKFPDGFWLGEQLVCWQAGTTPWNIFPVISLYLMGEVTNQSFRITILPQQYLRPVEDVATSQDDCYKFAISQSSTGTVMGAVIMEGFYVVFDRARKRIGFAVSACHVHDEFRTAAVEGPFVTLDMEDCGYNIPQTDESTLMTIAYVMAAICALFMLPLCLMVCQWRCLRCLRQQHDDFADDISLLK
T2 sequence (P06276 whole entry): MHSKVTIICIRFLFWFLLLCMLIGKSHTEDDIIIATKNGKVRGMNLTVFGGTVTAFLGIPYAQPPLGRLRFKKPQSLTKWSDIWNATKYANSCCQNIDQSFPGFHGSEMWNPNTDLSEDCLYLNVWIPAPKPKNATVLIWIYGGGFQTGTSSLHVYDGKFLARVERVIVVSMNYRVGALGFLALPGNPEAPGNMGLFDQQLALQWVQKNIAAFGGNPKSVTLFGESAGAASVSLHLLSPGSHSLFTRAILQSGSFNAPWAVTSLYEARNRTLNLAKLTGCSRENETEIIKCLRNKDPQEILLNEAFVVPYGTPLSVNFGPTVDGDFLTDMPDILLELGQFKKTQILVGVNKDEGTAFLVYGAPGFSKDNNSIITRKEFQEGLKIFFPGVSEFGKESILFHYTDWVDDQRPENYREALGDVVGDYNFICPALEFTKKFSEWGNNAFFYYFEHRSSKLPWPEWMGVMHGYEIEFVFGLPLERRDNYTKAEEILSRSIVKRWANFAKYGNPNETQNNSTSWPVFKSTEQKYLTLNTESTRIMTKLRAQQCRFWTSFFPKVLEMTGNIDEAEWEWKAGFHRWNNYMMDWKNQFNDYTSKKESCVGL
T1 sequence (O42275 whole entry): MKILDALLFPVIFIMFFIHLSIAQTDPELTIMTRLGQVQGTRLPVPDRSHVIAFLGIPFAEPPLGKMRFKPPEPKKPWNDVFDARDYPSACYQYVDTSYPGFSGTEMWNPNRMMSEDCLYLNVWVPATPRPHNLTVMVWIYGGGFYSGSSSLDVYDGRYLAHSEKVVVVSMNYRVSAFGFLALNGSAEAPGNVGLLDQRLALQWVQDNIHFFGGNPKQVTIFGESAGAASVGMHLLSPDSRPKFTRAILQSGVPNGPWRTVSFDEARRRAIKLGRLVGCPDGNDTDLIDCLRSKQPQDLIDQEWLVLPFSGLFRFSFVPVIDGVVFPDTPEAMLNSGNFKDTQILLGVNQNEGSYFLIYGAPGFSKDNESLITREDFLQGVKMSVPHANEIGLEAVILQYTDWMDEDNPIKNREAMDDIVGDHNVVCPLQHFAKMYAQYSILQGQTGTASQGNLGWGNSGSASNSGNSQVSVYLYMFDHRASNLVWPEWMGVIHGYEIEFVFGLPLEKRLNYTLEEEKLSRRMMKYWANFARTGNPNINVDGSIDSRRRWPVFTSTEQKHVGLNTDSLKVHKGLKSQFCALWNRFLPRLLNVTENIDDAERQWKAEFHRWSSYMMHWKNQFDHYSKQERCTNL
Sequence of Acetylcholinesterase (Torpedo californica, UniProt P04058) (P04058 whole entry): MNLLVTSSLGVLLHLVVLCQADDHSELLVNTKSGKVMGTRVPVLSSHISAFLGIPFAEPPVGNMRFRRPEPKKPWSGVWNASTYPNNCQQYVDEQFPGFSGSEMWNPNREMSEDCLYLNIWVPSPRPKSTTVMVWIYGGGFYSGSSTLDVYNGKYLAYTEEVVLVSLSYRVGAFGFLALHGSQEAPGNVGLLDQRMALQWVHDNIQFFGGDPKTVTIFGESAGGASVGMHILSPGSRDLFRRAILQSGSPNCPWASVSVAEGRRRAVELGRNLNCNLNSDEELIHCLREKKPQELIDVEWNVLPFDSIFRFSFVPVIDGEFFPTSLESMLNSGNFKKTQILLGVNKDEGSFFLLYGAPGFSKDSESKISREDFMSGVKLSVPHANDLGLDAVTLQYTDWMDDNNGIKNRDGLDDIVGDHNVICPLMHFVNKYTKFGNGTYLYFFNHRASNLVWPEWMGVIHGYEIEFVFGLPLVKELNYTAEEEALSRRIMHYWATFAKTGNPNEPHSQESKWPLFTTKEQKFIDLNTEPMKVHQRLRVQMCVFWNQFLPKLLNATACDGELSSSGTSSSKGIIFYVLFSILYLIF

Turning to `O=C(/C=C/c1cccs1)N1CCc2ccccc2C1`, the IC50 against Acetylcholinesterase [1] was found to be 19.4 µM; against Cholinesterase [2], 2.5 µM. In [3], this molecule displayed an inhibition of 65.2%.

Molecule `COc1ccc(C(=O)CCC(=O)NCCCNc2c3c(nc4ccccc24)CCCC3)c2ccccc12` showed an inhibition in experiment [4] of 70.5%. The molecule further gave an IC50 on Acetylcholinesterase [5] of 0.12 µM.

In turn, `O=S(=O)(NCC1CCN(Cc2ccccc2)CC1)c1ccc(-c2ccccc2)cc1` returned an inhibition in experiment [6] of 60.7%.

On to `O=C(NCCCNc1c2c(nc3cc(Cl)ccc13)CCCC2)c1nc2ccc([N+](=O)[O-])cc2s1`, for which the IC50 on Acetylcholinesterase [7] was 0.018 µM; in [8] it was 3.8 µM; at Cholinesterase [9], 4660 µM.

The molecule `CN(C)CCN1CCN(c2ccc(C(=O)/C=C/c3cc4ccccc4o3)cc2)CC1` returned an inhibition in experiment [10] of 94.6%.

Regarding `O=C(Nc1ccc(Oc2ccc3ccc(=O)oc3c2)cc1)c1cc(-c2cccc([N+](=O)[O-])c2)on1`, on Acetylcholinesterase [1], the IC50 came out at 1.23 µM. Further, at Beta-secretase 1 [11], the inhibition amounted to 48.5%.

`O=C(CCCCC1CCSS1)NCc1cn(CCCCOc2ccc3c(=O)ccoc3c2)nn1` (stereo unspecified) returned an IC50 at Cholinesterase [12] of 7.5 µM.

Turning to `COc1ccc(/C=C/C(=O)NCCc2cc3ccccc3[nH]2)cc1OC`, the figures for the inhibition (in experiment [13]; against Beta-secretase 1 [15]) were 10.1% and 40.7%, respectively. In addition, on Acetylcholinesterase [14], the IC50 amounted to 11.5 µM.

Take `FC(F)(F)c1ccc(-c2nnc(CNC3CCN(Cc4ccccc4)C3)o2)cc1` (stereo unspecified): the IC50 against Cholinesterase [2] turned out to be 0.074 µM; against Beta-secretase 1 [16] it was 0.143 µM; on Acetylcholinesterase [17], 0.064 µM.

In experiment [18], `O=C(NCCNc1c2c(nc3cc(Cl)ccc13)CCCC2)c1cc(-c2ccc(Cl)cc2)on1` yielded an inhibition of 79.4%. The results for the IC50 against Beta-secretase 1 [19], against Acetylcholinesterase [20] and against Cholinesterase [21] were 1.65 µM, 0.052 µM and 0.372 µM, respectively.

For `COC(=O)[C@H]1[C@H]2C[C@@H]3c4[nH]c5cc(OC)ccc5c4CCN3C[C@H]2C[C@@H](OC(=O)c2cc(OC)c(OC)c(OC)c2)[C@@H]1OC` [RESERPINE], the IC50 on Cholinesterase [22] came out at 2.8 µM; at Acetylcholinesterase [24], 1.7 µM. In experiment [23], the inhibition is 68%.

`CCN(CCCCCOc1cc(O)c2c(c1)OC(c1ccc(O)cc1)CC2=O)Cc1ccccc1` (stereo unspecified): the inhibition in experiment [25] worked out at 62.1%.

Consider `CCCOc1ccc2c(C)cc(=S)oc2c1OCCC`, for which the IC50 against Cholinesterase [26] stood at 17 µM; at Acetylcholinesterase [27], 5.63 µM. The inhibition was determined as 76.7% in [28] and 57.2% at Beta-secretase 1 [29].

Molecule `COC(=O)C(C)c1ccc(-c2ccc(C(=O)/C=C/c3ccc(CN4CCCC4)c(O)c3)cc2)c(F)c1` (stereo unspecified) yielded an IC50 at Acetylcholinesterase [20] of 7.15 µM. Also, the inhibition in [30] was determined as 70.7%.

With `CCc1cc(-c2nnc(Nc3ccccc3Cl)s2)c(O)cc1O`, the results for the IC50 against Acetylcholinesterase [31] and on Cholinesterase [33] were 0.031 µM and 18.3 µM, respectively. In addition, the inhibition in experiment [32] was determined as 55.8%.
